The values that follow come from patent US20240327406A1, “POTASSIUM CHANNEL MODULATORS” (Autifony Therapeutics Limited, priority 2021, published 2024).

In this assay the target is T1, human Kv3.1 channels (hKv3.1) (Homo sapiens, UniProt P48547).
T1 sequence (P48547 1-501 limits assumed): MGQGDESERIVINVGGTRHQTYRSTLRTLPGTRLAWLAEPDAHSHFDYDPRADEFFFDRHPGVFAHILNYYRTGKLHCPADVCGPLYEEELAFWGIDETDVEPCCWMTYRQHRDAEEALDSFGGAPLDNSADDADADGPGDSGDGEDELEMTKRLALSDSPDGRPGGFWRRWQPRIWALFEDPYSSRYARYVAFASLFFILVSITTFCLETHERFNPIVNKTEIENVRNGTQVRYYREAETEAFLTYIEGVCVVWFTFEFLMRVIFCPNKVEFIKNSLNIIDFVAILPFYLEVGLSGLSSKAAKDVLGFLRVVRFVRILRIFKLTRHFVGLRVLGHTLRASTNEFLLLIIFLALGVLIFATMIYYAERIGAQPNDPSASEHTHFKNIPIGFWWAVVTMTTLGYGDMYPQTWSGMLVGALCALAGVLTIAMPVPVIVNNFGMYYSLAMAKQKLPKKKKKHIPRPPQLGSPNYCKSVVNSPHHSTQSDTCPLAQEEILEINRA
Put plainly: Measurement of Kv3 channel modulation: Kv3.1 assay (IonWorks Quattro whole-cell electrophysiology). The settings on record: for Kv3.1 max R %: normalised to maximum effect of reference compound (50 microM). The assay is classed as cell-based. As to the method:
The ability of the compounds of the invention to modulate the voltage-gated potassium channel subtypes Kv3.4/Kv3.3/Kv3.2/Kv3.1 may be determined using the following assay. Analogous methods may be used to investigate the ability of the compounds of the invention to modulate other channel subtypes.
Human embryonic kidney (HEK)-hKv3.1 cell line is generated by transfecting HEK-293 cells with an expression vector with human Kv3.1 (NM_004976.4). Cells are cultured with MEM supplemented with 10% Heat-Inactivated FBS, 2 mM L-glutamine, 1% Penicillin-Streptomycin, and 0.6 mg/ml of Geneticin (G418). HEK-hKv3.1b cells were amplified in T175 cm2 flask at 37° C. with 5% CO2, using MEM amplification medium, containing the G418 selection antibiotic (0.6 mg/ml). Cells were detached every 3-4 days, using DPBS to wash twice the flask, then TrypLE to dislodge the cells, and re-plated at a density of 2-4×10^6 cells/flask.
The day of the experiment, cells are removed from the incubator and the culture medium removed. Cells are washed with 5 ml of Dulbecco's PBS (DPBS) calcium and magnesium free and detached by the addition of 3 ml Versene (Invitrogen, Italy) followed by a brief incubation at 37° C. for 5 minutes. The flask is tapped to dislodge cells and 10 ml of DPBS containing calcium and magnesium is added to prepare a cell suspension. The cell suspension is then placed into a 15 ml centrifuge tube and centrifuged for 2 min at 1200 rpm. After centrifugation, the supernatant is removed and the cell pellet re-suspended in 4 ml of DPBS containing calcium and magnesium using a 5 ml pipette to break up the pellet. Cell suspension volume is then corrected to give a cell concentration for the assay of approximately 3 million cells per ml.
Experiments are conducted at r.t. using IonWorks Quattro™ planar array electrophysiology technology (Molecular Devices Corp.) with PatchPlate™ PPC. Stimulation protocols and data acquisition are carried out using a microcomputer (Dell Pentium 4). Planar electrode hole resistances (Rp) are determined by applying a 10 mV voltage step across each well. These measurements are performed before cell addition. After cell addition and seal formation, a seal test is performed by applying a voltage step from −80 mV to −70 mV for 160 ms. Following this, amphotericin-B solution is added to the intracellular face of the electrode to achieve intracellular access. Cells are held at −70 mV. Leak subtraction is conducted in all experiments by applying 50 ms hyperpolarizing (10 mV) prepulses to evoke leak currents followed by a 20 ms period at the holding potential before test pulses.
For hKv3.2 and hKv3.1, assays from the holding potential of −70 mV, a first test pulse at −15 mV was applied for 100 ms and after 100 ms at −70 mV a second pulse at +40 mV was applied for 50 ms. Cells were then maintained for 100 ms at −100 mV and another pulse from […] to +40 mV (duration 50 ms) was applied to clamp later the voltage at −40 mV during 200 ms
The intracellular solution contains the following (in mM): K-gluconate 100, KCl 54, MgCl2 3.2, HEPES 5, adjusted to pH 7.3 with KOH. Amphotericin-B solution is prepared as 50 mg/ml stock solution in DMSO and diluted to a final working concentration of 0.1 mg/ml in intracellular solution.
Compounds of use in the invention (or reference compounds such as N-cyclohexyl-N-[(7,8-dimethyl-2-oxo-1,2-dihydro-3-quinolinyl)methyl]-N′-phenylurea) are dissolved in dimethylsulfoxide (DMSO) at a stock concentration of 10 mM. […] Each dilution (1 μL) is transferred to another compound plate and external solution containing 0.05% pluronic acid (66 μL) is added. 3.5 μL from each plate containing a compound of the invention is added and incubated with the cells during the IonWorks Quattro™ experiment. The final assay dilution is 200 and the final compound concentrations are in the range 50 μM to 50 nM.

Setting [1] is: Table 2, Example compounds, rounded to one decimal place, some compounds with two data sets (n given in cell), read-out: Kv3.1 pEC50 (converted).
Where [2] appears, read: Table 3, Reference Examples and corresponding Examples, rounded to one decimal place, read-out: Kv3.1 pEC50 (converted).
The mark [3] stands for this setting: Table 1, Reference Examples, current at -15 mV step, normalised to 50 microM reference compound, read-out: Kv3.1 pEC50 (converted).

Values joined by “and” are separate entries in the source; they are usually repeats but may differ in a detail not shown here. Equal entries are not always repeated. Where two headings read alike, the source gives them in different places.

Consider `Cc1ncc2[nH]c(=O)n(-c3ccc(Oc4ccc(C)c5c4C4(CC4)CO5)nc3)c2n1` [Example 25, 2-methyl-9-[6-(7-methylspiro[2H-benzofuran-3,1′-cyclopropane]-4-yl)oxy-3-pyridyl]-7H-purin-8-one], for which the “Kv3.1 max R %” value (Table 2, Example compounds) amounted to 190%. The EC50 under setting [1] was 316 nM.
For `CC1(C)COc2cccc(Oc3ncc(-n4c(=O)[nH]c5cnccc54)cn3)c21` [RE9, reference compound], under setting [2], the EC50 is above 50100 nM.
Regarding `CC[C@H]1NC(=O)N(c2ccc(Oc3ccc(C)c4c3C3(CC3)CO4)nc2)C1=O` [RE1, reference compound], the “Kv3.1 max R %” value (Table 1, Reference Examples) is 157%.
For `Cc1ccc(Oc2ccc(-n3c(=O)[nH]c4cncnc43)cn2)c2c1OCC21CC1` [Example 29, 9-[6-(7-methylspiro[2H-benzofuran-3,1′-cyclopropane]-4-yl)oxy-3-pyridyl]-7H-purin-8-one], where the note is “Table 2, Example compounds”, the “Kv3.1 max R %” value amounted to 117%. In addition, the EC50 under setting [1] was 158 nM.
Regarding `Cn1cc2[nH]c(=O)n(-c3cnc(Oc4cccc5c4C4(CC4)CO5)nc3)c2n1` [Example 22, 2-methyl-6-(2-spiro[2H-benzofuran-3,1′-cyclopropane]-4-yloxypyrimidin-5-yl)-4H-imidazo[4,5-c]pyrazol-5-one], the “Kv3.1 max R %” value (Table 2, Example compounds) is on record as 166%. Moreover, the EC50 under setting [1] is 501 nM.
Turning to `O=c1[nH]c2cccnc2n1-c1cnc(Oc2cccc(OC(F)(F)F)c2)cn1` [Example 10, 3-[5-[3-(trifluoromethoxy)phenoxy]pyrazin-2-yl]-1H-imidazo[4,5-b]pyridin-2-one], the “Kv3.1 max R %” value (Table 2, Example compounds) was determined as 94%. Further, the EC50 under setting [1] is 2000 nM.
`O=c1[nH]c2ncccc2n1-c1ccc(Oc2cccc3c2C2(CC2)CO3)nc1` [Example 36, 1-(6-spiro[2H-benzofuran-3,1′-cyclopropane]-4-yloxy-3-pyridyl)-3H-imidazo[4,5-b]pyridin-2-one]: the EC50 is 631 nM (Kv3.1 pEC50, Table 2, Example compounds, rounded to one decimal place, some compounds with two data sets (n given in cell)); 631 nM (Kv3.1 pEC50, Table 3, Reference Examples and corresponding Examples, rounded to one decimal place). In addition, the “Kv3.1 max R %” value (Table 2, Example compounds) is recorded as 113%.
As to `O=c1[nH]c2c[nH]nc2n1-c1ccc(Oc2cccc3c2C2(CC2)CO3)nc1` [Example 34, 6-(6-spiro[2H-benzofuran-3,1′-cyclopropane]-4-yloxy-3-pyridyl)-2,4-dihydroimidazo[4,5-c]pyrazol-5-one], the “Kv3.1 max R %” value (Table 2, Example compounds) is 128% and 131%. In addition, under “Table 2, Example compounds, rounded to one decimal place, some compounds with two data sets (n given in cell)”, the “Kv3.1 pEC50” value is on record as 5.0 (n = 2). Also, under setting [1], the EC50 is 10000 nM.
As to `CC1(C)COc2cccc(Oc3ncc(-n4c(=O)[nH]c5ccncc54)cn3)c21` [Example 23, 3-[2-[(3,3-dimethyl-2H-benzofuran-4-yl)oxy]pyrimidin-5-yl]-1H-imidazo[4,5-c]pyridin-2-one], where the note is “Table 2, Example compounds”, the “Kv3.1 max R %” value was 101% and 107%. The EC50 was 10000 nM and 7940 nM under setting [1]; 7940 nM under setting [2].
Consider `O=c1[nH]c2cccnc2n1-c1ccc(Oc2cccc3c2C2(CC2)CO3)cn1` [Example 6, 3-(5-spiro[2H-benzofuran-3,1′-cyclopropane]-4-yloxy-2-pyridyl)-1H-imidazo[4,5-b]pyridin-2-one], for which, under “Table 2, Example compounds”, the “Kv3.1 max R %” value is 221%. Besides, the EC50 under setting [1] is 2000 nM.
On the same counts, the results for `Cn1cc2[nH]c(=O)n(-c3cnc(Oc4cccc5c4C4(CC4)CO5)cn3)c2n1` [Example 21, 2-methyl-6-(5-spiro[2H-benzofuran-3,1′-cyclopropane]-4-yloxypyrazin-2-yl)-4H-imidazo[4,5-c]pyrazol-5-one] are 96% and 10000 nM.
In the case of `Cc1ncc2[nH]c(=O)n(-c3ccc(Oc4ccc(C)c(OC(F)(F)F)c4)nc3)c2n1` [Example 27, 2-methyl-9-[6-[4-methyl-3-(trifluoromethoxy)phenoxy]-3-pyridyl]-7H-purin-8-one], for the setting “Table 2, Example compounds”, the “Kv3.1 max R %” value was 134% and 138%. Besides, the EC50 under setting [1] was 1580 nM and 1260 nM.
As for `Cc1ccc(Oc2ncc(-n3c(=O)[nH]c4cccnc43)cn2)c2c1OCC21CC1` [Example 31, 3-[2-(7-methylspiro[2H-benzofuran-3,1′-cyclopropane]-4-yl)oxypyrimidin-5-yl]-1H-imidazo[4,5-b]pyridine-2-one], the “Kv3.1 max R %” value (Table 2, Example compounds) is 217%. Besides, the EC50 under setting [1] was 200 nM.
On to `Cc1ccc(Oc2ccc(-n3c(=O)[nH]c4cccnc43)cn2)c2c1OCC21CC1` [Example 1, 3-[6-(7-methylspiro[2H-benzofuran-3,1′-cyclopropane]-4-yl)oxy-3-pyridyl]-1H-imidazo[4,5-b]pyridin-2-one], for which the “Kv3.1 max R %” value (Table 2, Example compounds) came out at 148%. Moreover, the EC50 reads like this: under setting [1], 200 nM; under setting [2], 200 nM.
`CC1(C)COc2cccc(Oc3ccc(-n4c(=O)[nH]c5cccnc54)cn3)c21` [Example 12, 3-[6-[(3,3-dimethyl-2H-benzofuran-4-yl)oxy]-3-pyridyl]-1H-imidazo[4,5-b]pyridin-2-one]: the “Kv3.1 max R %” value (Table 2, Example compounds) worked out at 164%. Under setting [1], the EC50 was 316 nM.
As to `Cc1ccc(Oc2ccc(N3CCNC3=O)cn2)c2c1OCC21CC1` [RE7, reference compound], the EC50 under setting [3] is 39800 nM. The “Kv3.1 max R %” value (Table 1, Reference Examples) came to 29%.
For `Cc1ccc(Oc2ccc(N3C(=O)CC(C)(C)NC3=O)cn2)c2c1OCC21CC1` [RE5, reference compound] the same measures were 11200 nM and 90%.
On to `COc1cccc(Oc2ncc(-n3c(=O)[nH]c4cccnc43)cn2)c1` [Example 16, 3-[2-(3-methoxyphenoxy)pyrimidin-5-yl]-1H-imidazo[4,5-b]pyridin-2-one], for which the “Kv3.1 max R %” value (Table 2, Example compounds) was found to be 124%. Also, the EC50 under setting [1] was 3160 nM.
On the same counts, the results for `Cc1ccnc2c1[nH]c(=O)n2-c1cnc(Oc2cccc3c2C2(CC2)CO3)nc1` [Example 15, 7-methyl-3-(2-spiro[2H-benzofuran-3,1′-cyclopropane]-4-yloxypyrimidin-5-yl)-1H-imidazo[4,5-b]pyridin-2-one] are 201% and 1000 nM.
On to `CC1(C)COc2cccc(Oc3cnc(-n4c(=O)[nH]c5cccnc54)cn3)c21` [Example 9, 3-[5-[(3,3-dimethyl-2H-benzofuran-4-yl)oxy]pyrazin-2-yl]-1H-imidazo[4,5-b]pyridin-2-one], for which the “Kv3.1 max R %” value (Table 2, Example compounds) is reported as 147%. For the same compound, the EC50 under setting [1] was 1260 nM.
In the case of `Cc1ccc(Oc2ccc(N3C(=O)CCNC3=O)cn2)c2c1OCC21CC1` [RE8, reference compound], the EC50 under setting [3] was 25100 nM. The “Kv3.1 max R %” value (Table 1, Reference Examples) was determined as 140%.
